Experimental data published in PMC10616469, “Pharmacokinetics and tissue distribution of four major bioactive components of Cynanchum auriculatum extract: a UPLC–MS/MS study in normal and functional dyspepsia rats” (Frontiers in Pharmacology, 2023).
Like-named read-outs stand apart in the source and are kept apart here.

Experiments:
[1] = Tissue distribution study after oral administration of CA extract in normal and FD rats; settings: distribution found in rat brain
Experimental: (§1) UPLC–MS/MS analysis was conducted using the ACQUITY UPLC system (Waters Corp., Milford, MA, United States) equipped with a Xevo–TQ mass spectrometer (Waters Corp., Milford, MA, United States) with an electrospray ionization (ESI) interface and triple quadrupole mass analyzer.
(§2) The ACQUITY UPLC® BEH C18 column (2.1 mm × 50 mm, 1.7 μm, Waters, United States) was used for separation and was maintained at 40°C. The mobile phase consisted of 0.1% formic acid in water (A) and 0.1% formic acid–acetonitrile (B) for PK study and 0.2% formic acid in water (A) and 0.2% formic acid–acetonitrile (B) for tissue distribution study. The mobile phase was eluted as a gradient, as follows: 0–0.5 min, 10% B; 0.5–3.0 min, 15% B; 3.0–3.2 min, 25% B; 3.2–4.0 min, 30% B; 4.0–4.5 min, 32% B; 4.5–6.0 min, 90% B; and 6.0 min, 10% B. The flow rate was set at 0.35 mL/min and the injection volume was 2 μL for the PK study and 1 μL for the tissue distribution study.
(§3) The four active components of CA were quantified using multiple reaction monitoring under negative ion mode. The following m/z transitions were chosen for quantification: baishouwu benzophenone 301.00→283.00, deacylmetaplexigenin 379.15→361.20, qingyangshengenin 499.20→137.00, syringic acid 197.20→181.95, and puerarin (internal standard, IS) 415.10→267.05. The collision energy was 15, 15, 35, 15, and 35 V, respectively ([Sun et al., 2022]). ESI mode was operated under the following conditions: capillary voltage, 1 kV; desolvation gas (N2), 1000 L/h; collision gas (Ar2), 150 L/h; desolvation temperature, 400°C; and source temperature, 120°C.
(§4) Additionally, stomach and small intestinal tissues were diluted three times to obtain a tissue homogenate. Then, 300 μL of this tissue homogenate was mixed with 30 μL 1% formic acid-water, 20 μL IS, and 1.2 mL acetonitrile. The mixture was then vortexed for 5 min, sonicated for 10 min, and then stored at −20°C for 30 min. Subsequently, the mixture was centrifuged at 14,000 rpm for 10 min. The supernatant obtained was then transferred to another tube and evaporated to dryness at 37°C under nitrogen. The dried residue was reconstituted with 200 μL of the 50% methanol–water, and the centrifugation process was repeated. The obtained supernatant was then used for further analysis.
(§5) SD rats were randomly divided into normal and FD groups (n = 30 each) and orally administered 10 mL/kg of CA extract solution. The rats were sacrificed at 10, 30 min, 1, 2, and 4 h after administration (6 rats per time point). Subsequently, their heart, liver, spleen, lung, kidney, brain, small intestine, and stomach were removed. The tissue samples were then washed in saline solution and wiped with filter paper. Subsequently, all tissues were stored at −80°C until analysis.

[2] = PK study: plasma pharmacokinetics after oral administration of CA extract in normal and FD rats (UPLC-MS/MS); format: in vivo; settings: Sprague-Dawley, rat; for AUC(0-inf) / AUC(0-t) / CL/F / Cmax / half-life: n = 6; for Vd/F: n = 6, read-out: Vz/F
Experimental: For PK experiments, an appropriate amount of the CA extract was weighed to prepare a 0.10 g/mL solution using physiological saline. Briefly, 12 SD rats were randomly assigned to normal and FD groups and were orally administered the prepared CA sample (10 mL/kg body weight). For assessment, 0.3 mL of blood was collected into heparinized tubes via the caudal vein before dosing and at 2, 5, 10, 15, 20, 30, and 45 min, and 1, 2, 4, 8, 12, 24, and 48 h after administration. Blood samples were then immediately centrifuged at 4,500 rpm for 15 min, and the obtained plasma samples were stored at −20°C until determination.
The PK parameters were analyzed using the non–compartment analysis using the WinNonLin 8.2 software (Phoenix, United States). All the data were expressed as mean ± standard deviation (SD). The normal and FD groups were compared using independent samples t–test in SPSS 22.0. Results with p values < 0.05 were considered statistically significant.

[3] = Stability of the four compounds in tissue homogenate samples (QC samples); settings: mean ± s, n = 5
Experimental: as §4
The appropriate amount of the reference substance was accurately weighed and dissolved in an appropriate amount of methanol to obtain stock solutions. The concentrations of the resulting stock solution were 0.9996 mg/mL for baishouwu benzophenone, 0.9518 mg/mL for deacylmetaplexigenin, 1.3660 mg/mL for qingyangshengenin, and 0.9898 mg/mL for syringic acid. Accurate volumes of each stock solution were mixed to obtain working solution, which was then serially diluted with methanol to provide standard working solutions. Similarly, QC samples of three concentrations (low, medium, and high) were prepared. All solutions were stored at −20°C for later use.
The following parameters of stability were assessed: short–term stability (24 h at room temperature), processed sample stability (24 h at 4°C), freeze–thaw stability (3 cycles), and auto–sampler stability (6 h at room temperature). QC samples of different concentrations were used for stability analysis.

[4] = rat, in vivo
Experimental: as §1, §2, §3, §4, §5

[5] = Stability of the four compounds in plasma samples (QC samples); settings: n = 5
Experimental: In a 1.5 mL EP tube, 100 μL of plasma sample was mixed with 10 µL 1% formic acid–water, 10 μL IS (0.2011 μg/mL), and 400 μL acetonitrile. The mixture was then vortexed for 5 min, followed by sonication for 10 min at 40 kHz and centrifugation at 14,000 rpm for 10 min. The supernatant obtained was transferred to another tube and evaporated to dryness under a nitrogen vacuum at 37°C. The residue obtained was reconstituted with 150 μL of the initial mobile phase, and the centrifugation process was repeated. The supernatant thus obtained was then used for further analysis.
Similarly, QC samples of three concentrations (low, medium, and high) were prepared.
The specificity of the method was evaluated by comparing the retention times of analytes and IS in the blank matrix, blank matrix spiked with the four analytes and IS, and the samples after oral administration of CA extract. Calibration curves were constructed by comparing the ratio of peak areas of the four analytes to that of IS versus the concentration of the four analytes. Calibration curves were fitted via linear weighted (1/X ^ 2 ) least–squares regression. The intra–and inter–day precision and accuracy were estimated by analyzing QC samples at different concentrations on the same day and three consecutive validation days, respectively. The extraction recovery was evaluated by determining the peak area of analytes in QC samples compared with that in extracted matrix samples. The relative standard deviation of the extraction recovery of analytes at each level was retained at ≤20.0%. The following parameters of stability were assessed: short–term stability (24 h at room temperature), processed sample stability (24 h at 4°C), freeze–thaw stability (3 cycles), and auto–sampler stability (6 h at room temperature). QC samples of different concentrations were used for stability analysis.

[6] = FD group rats, oral CA extract (0.10 g/mL solution, 10 mL/kg)
[7] = Normal group rats, oral CA extract (0.10 g/mL solution, 10 mL/kg)
[8] = Brain homogenate, highest QC (ng·mL^-1): Baishouwu benzophenone 131.10, Syringic acid 320.04, Qingyangshengenin 62.12, Deacylmetaplexigenin 677.19
[9] = Brain homogenate, lowest QC (ng·mL^-1): Baishouwu benzophenone 3.34, Syringic acid 8.18, Qingyangshengenin 1.58, Deacylmetaplexigenin 17.26
[10] = Brain homogenate, middle QC (ng·mL^-1): Baishouwu benzophenone 20.88, Syringic acid 51.14, Qingyangshengenin 9.90, Deacylmetaplexigenin 107.87
[11] = Heart homogenate, highest QC (ng·mL^-1): Baishouwu benzophenone 111.56, Syringic acid 340.93, Qingyangshengenin 350.76, Deacylmetaplexigenin 1522.88
[12] = Heart homogenate, lowest QC (ng·mL^-1): Baishouwu benzophenone 2.66, Syringic acid 8.11, Qingyangshengenin 8.35, Deacylmetaplexigenin 36.24
[13] = Heart homogenate, middle QC (ng·mL^-1): Baishouwu benzophenone 18.96, Syringic acid 57.96, Qingyangshengenin 59.63, Deacylmetaplexigenin 258.89
[14] = Kidney homogenate, highest QC (ng·mL^-1): Baishouwu benzophenone 768.40, Syringic acid 1230.44, Qingyangshengenin 844.98, Deacylmetaplexigenin 2249.71
[15] = Kidney homogenate, lowest QC (ng·mL^-1): Baishouwu benzophenone 9.84, Syringic acid 15.75, Qingyangshengenin 10.82, Deacylmetaplexigenin 28.80
[16] = Kidney homogenate, middle QC (ng·mL^-1): Baishouwu benzophenone 81.96, Syringic acid 131.25, Qingyangshengenin 90.13, Deacylmetaplexigenin 239.97
[17] = Liver homogenate, highest QC (ng·mL^-1): Baishouwu benzophenone 313.75, Syringic acid 268.07, Qingyangshengenin 4484.13, Deacylmetaplexigenin 3093.35
[18] = Liver homogenate, lowest QC (ng·mL^-1): Baishouwu benzophenone 1.77, Syringic acid 22.34, Qingyangshengenin 25.26, Deacylmetaplexigenin 16.38
[19] = Liver homogenate, middle QC (ng·mL^-1): Baishouwu benzophenone 27.19, Syringic acid 89.35, Qingyangshengenin 386.62, Deacylmetaplexigenin 268.09
[20] = Lung homogenate, highest QC (ng·mL^-1): Baishouwu benzophenone 630.29, Syringic acid 662.80, Qingyangshengenin 385.86, Deacylmetaplexigenin 1513.71
[21] = Lung homogenate, lowest QC (ng·mL^-1): Baishouwu benzophenone 17.66, Syringic acid 18.57, Qingyangshengenin 10.81, Deacylmetaplexigenin 42.42
[22] = Lung homogenate, middle QC (ng·mL^-1): Baishouwu benzophenone 105.98, Syringic acid 111.44, Qingyangshengenin 64.88, Deacylmetaplexigenin 254.52
[23] = Small intestine homogenate, highest QC (ng·mL^-1): Baishouwu benzophenone 39.22, Syringic acid 773.28, Qingyangshengenin 1726.39, Deacylmetaplexigenin 1206.41
[24] = Small intestine homogenate, lowest QC (ng·mL^-1): Baishouwu benzophenone 0.46, Syringic acid 9.31, Qingyangshengenin 20.77, Deacylmetaplexigenin 14.52
[25] = Small intestine homogenate, middle QC (ng·mL^-1): Baishouwu benzophenone 4.97, Syringic acid 97.95, Qingyangshengenin 218.68, Deacylmetaplexigenin 152.81
[26] = Spleen homogenate, highest QC (ng·mL^-1): Baishouwu benzophenone 658.88, Syringic acid 752.66, Qingyangshengenin 418.52, Deacylmetaplexigenin 1979.74
[27] = Spleen homogenate, lowest QC (ng·mL^-1): Baishouwu benzophenone 10.98, Syringic acid 12.54, Qingyangshengenin 6.98, Deacylmetaplexigenin 33.00
[28] = Spleen homogenate, middle QC (ng·mL^-1): Baishouwu benzophenone 87.85, Syringic acid 100.35, Qingyangshengenin 55.80, Deacylmetaplexigenin 263.97
[29] = Stomach homogenate, highest QC (ng·mL^-1): Baishouwu benzophenone 47.06, Syringic acid 257.76, Qingyangshengenin 1285.45, Deacylmetaplexigenin 1665.65
[30] = Stomach homogenate, lowest QC (ng·mL^-1): Baishouwu benzophenone 0.63, Syringic acid 3.44, Qingyangshengenin 17.14, Deacylmetaplexigenin 22.21
[31] = Stomach homogenate, middle QC (ng·mL^-1): Baishouwu benzophenone 6.28, Syringic acid 34.37, Qingyangshengenin 171.39, Deacylmetaplexigenin 222.09
[32] = high QC (nominal 1666.00 / 3172.53 / 569.17 / 206.21 ng·mL^-1)
[33] = low QC (nominal 52.06 / 49.57 / 8.89 / 1.61 ng·mL^-1)
[34] = medium QC (nominal 208.25 / 396.57 / 71.13 / 25.78 ng·mL^-1)

CC(=O)C1(O)CCC2(O)C3(O)CC=C4CC(O)CCC4(C)C3CC(O)C12C (stereo not shown) [Deacylmetaplexigenin]
crossing of the blood-brain barrier [1]: could cross the blood-brain barrier
Tmax ([2]; 1 g/kg, oral CA extract, normal and FD rats, read-out: time of peak concentration (Tmax)): 20 to 30 min
AUC(0-inf) [2, 6]: 13900 ng·h/mL
AUC(0-t) [2, 6]: 13300 ng·h/mL
CL/F [2, 6]: 16.5 mL/min/kg
Cmax [2, 6]: 4510 ± 241 ng/mL
half-life [2, 6]: 772 ± 454 min
Tmax ([2]; FD group rats, oral CA extract (0.10 g/mL solution, 10 mL/kg), n = 6, read-out: Tmax): 19.8 ± 4.8 min
Vd/F [2, 6]: 18.1 ± 10.6 L/kg
AUC(0-inf) [2, 7]: 12300 ng·h/mL
AUC(0-t) [2, 7]: 11600 ng·h/mL
CL/F [2, 7]: 19.2 mL/min/kg
Cmax [2, 7]: 4680 ± 499 ng/mL
half-life [2, 7]: 602 ± 190 min
Tmax ([2]; Normal group rats, oral CA extract (0.10 g/mL solution, 10 mL/kg), n = 6, read-out: Tmax): 25.2 ± 6.6 min
Vd/F [2, 7]: 16 ± 3.79 L/kg
Auto-sampler for 6 h Measured concentration [3, 8]: 639.39 ± 12.53 ng/mL
Three freeze-thaw cycles Measured concentration [3, 8]: 657.30 ± 18.60 ng/mL
Auto-sampler for 6 h Measured concentration [3, 9]: 16.37 ± 0.20 ng/mL
Three freeze-thaw cycles Measured concentration [3, 9]: 16.11 ± 0.43 ng/mL
Auto-sampler for 6 h Measured concentration [3, 10]: 106.81 ± 0.35 ng/mL
Three freeze-thaw cycles Measured concentration [3, 10]: 107.57 ± 1.64 ng/mL
Auto-sampler for 6 h Measured concentration [3, 11]: 1545.69 ± 28.28 ng/mL
Three freeze-thaw cycles Measured concentration [3, 11]: 1530.72 ± 31.74 ng/mL
Auto-sampler for 6 h Measured concentration [3, 12]: 29.91 ± 0.63 ng/mL
Three freeze-thaw cycles Measured concentration [3, 12]: 30.14 ± 0.33 ng/mL
Auto-sampler for 6 h Measured concentration [3, 13]: 253.92 ± 7.65 ng/mL
Three freeze-thaw cycles Measured concentration [3, 13]: 251.51 ± 4.47 ng/mL
Auto-sampler for 6 h Measured concentration [3, 14]: 2268.44 ± 53.12 ng/mL
Three freeze-thaw cycles Measured concentration [3, 14]: 2270.72 ± 48.43 ng/mL
Auto-sampler for 6 h Measured concentration [3, 15]: 30.96 ± 0.89 ng/mL
Three freeze-thaw cycles Measured concentration [3, 15]: 30.51 ± 1.21 ng/mL
Auto-sampler for 6 h Measured concentration [3, 16]: 267.87 ± 13.29 ng/mL
Three freeze-thaw cycles Measured concentration [3, 16]: 266.54 ± 9.78 ng/mL
Auto-sampler for 6 h Measured concentration [3, 17]: 3350.30 ± 128.16 ng/mL
Three freeze-thaw cycles Measured concentration [3, 17]: 3302.83 ± 129.48 ng/mL
Auto-sampler for 6 h Measured concentration [3, 18]: 15.66 ± 0.68 ng/mL
Three freeze-thaw cycles Measured concentration [3, 18]: 15.51 ± 0.68 ng/mL
Auto-sampler for 6 h Measured concentration [3, 19]: 249.04 ± 7.02 ng/mL
Three freeze-thaw cycles Measured concentration [3, 19]: 245.11 ± 4.40 ng/mL
Auto-sampler for 6 h Measured concentration [3, 20]: 1544.16 ± 36.02 ng/mL
Three freeze-thaw cycles Measured concentration [3, 20]: 1549.77 ± 41.79 ng/mL
Auto-sampler for 6 h Measured concentration [3, 21]: 38.33 ± 2.37 ng/mL
Three freeze-thaw cycles Measured concentration [3, 21]: 37.62 ± 2.38 ng/mL
Auto-sampler for 6 h Measured concentration [3, 22]: 243.55 ± 12.09 ng/mL
Three freeze-thaw cycles Measured concentration [3, 22]: 240.11 ± 10.98 ng/mL
Auto-sampler for 6 h Measured concentration [3, 23]: 1293.63 ± 65.40 ng/mL
Three freeze-thaw cycles Measured concentration [3, 23]: 1296.24 ± 110.99 ng/mL
Auto-sampler for 6 h Measured concentration [3, 24]: 12.77 ± 1.27 ng/mL
Three freeze-thaw cycles Measured concentration [3, 24]: 12.39 ± 1.33 ng/mL
Auto-sampler for 6 h Measured concentration [3, 25]: 150.09 ± 2.73 ng/mL
Three freeze-thaw cycles Measured concentration [3, 25]: 154.01 ± 1.23 ng/mL
Auto-sampler for 6 h Measured concentration [3, 26]: 1990.73 ± 48.18 ng/mL
Three freeze-thaw cycles Measured concentration [3, 26]: 1950.06 ± 62.22 ng/mL
Auto-sampler for 6 h Measured concentration [3, 27]: 31.95 ± 1.48 ng/mL
Three freeze-thaw cycles Measured concentration [3, 27]: 32.15 ± 1.58 ng/mL
Auto-sampler for 6 h Measured concentration [3, 28]: 232.19 ± 3.53 ng/mL
Three freeze-thaw cycles Measured concentration [3, 28]: 247.56 ± 6.23 ng/mL
Auto-sampler for 6 h Measured concentration [3, 29]: 1622.87 ± 76.11 ng/mL
Three freeze-thaw cycles Measured concentration [3, 29]: 1662.82 ± 50.13 ng/mL
Auto-sampler for 6 h Measured concentration [3, 30]: 21.14 ± 1.50 ng/mL
Three freeze-thaw cycles Measured concentration [3, 30]: 21.58 ± 1.95 ng/mL
Auto-sampler for 6 h Measured concentration [3, 31]: 244.68 ± 7.59 ng/mL
Three freeze-thaw cycles Measured concentration [3, 31]: 245.34 ± 9.19 ng/mL
time after oral administration at which almost completely metabolized in tissues ([4]; Sprague-Dawley): 4 h
time of peak in most of organ tissues ([4]; Sprague-Dawley, po): 0.17 to 0.5 h
tissue with the highest concentration ([4]; po): stomach and small intestine
Measured concentration, 4°C for 24 h [5, 32]: 3164.75 ± 84.97 ng/mL
Measured concentration, Three freeze-thaw cycles [5, 32]: 3053.63 ± 57.47 ng/mL
Measured concentration, 4°C for 24 h [5, 33]: 52.01 ± 2.68 ng/mL
Measured concentration, Three freeze-thaw cycles [5, 33]: 53.08 ± 3.47 ng/mL
Measured concentration, 4°C for 24 h [5, 34]: 406.61 ± 10.59 ng/mL
Measured concentration, Three freeze-thaw cycles [5, 34]: 352.32 ± 6.40 ng/mL
